Test results reported in patent US6756359B2, “C12 modified erythromycin macrolides and ketolides having antibacterial activity” (Chiron Corporation, priority 2001, dated 2004).
Values after ≈ are worked out from the molar mass of the structure shown.

Legend:
Test in all cases: Antibacterial activity in vitro, MIC by broth microdilution
[1] = tested on: E. faecalis Enfa_29212; assay type: cell-based; settings: Table 3, Strain ID C: E. faecalis Enfa_29212
Procedure, shortened: (§1)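 MIC = lowest drug concentration with no visible growth. Read after 18-24 h at 35° C. in 2-fold dilution series; inoculum 3×10^5–7×10^5 CFU/mL in CAMHB, supplemented with 2-5% lysed horse blood and incubated in 5-10% CO2 for pneumococci.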

[2] = tested on: S. epidermidis Step_14990; assay type: cell-based; settings: Table 3, Strain ID A: S. epidermidis Step_14990; unit assumed
Procedure, shortened: as §1

[3] = tested on: S. epidermidis Step_f50654 Pen S; assay type: cell-based; settings: Table 3, Strain ID B: S. epidermidis Step_f50654 Pen S; unit assumed
Procedure, shortened: as §1

[4] = tested on: E. coli Esco_25922; assay type: cell-based; settings: Table 3, Strain ID M: E. coli Esco_25922; unit assumed
Procedure, shortened: as §1

[5] = tested on: S. pyogenes Stpy_8668; assay type: cell-based; settings: Table 3, Strain ID D: S. pyogenes Stpy_8668
Procedure, shortened: as §1

[6] = tested on: S. pneumoniae Stpn_Mef 5654; assay type: cell-based, Streptococcus pneumoniae; settings: Table 3, Strain ID J: S. pneumoniae Stpn_Mef 5654; unit assumed
Procedure, shortened: as §1

[7] = tested on: S. pneumoniae Stpn_Mef S 3427; assay type: cell-based, Streptococcus pneumoniae; settings: Table 3, Strain ID K: S. pneumoniae Stpn_Mef S 3427
Procedure, shortened: as §1

[8] = tested on: S. pneumoniae Stpn_280-962 Pen S; assay type: cell-based, Streptococcus pneumoniae; settings: Table 3, Strain ID G: S. pneumoniae Stpn_280-962 Pen S
Procedure, shortened: as §1

[9] = tested on: S. pneumoniae Stpn_297-749 Pen R; assay type: cell-based, Streptococcus pneumoniae; settings: Table 3, Strain ID F: S. pneumoniae Stpn_297-749 Pen R
Procedure, shortened: as §1

[10] = tested on: S. pneumoniae Stpn_Erm 6849; assay type: cell-based, Streptococcus pneumoniae; settings: Table 3, Strain ID H: S. pneumoniae Stpn_Erm 6849; unit assumed
Procedure, shortened: as §1

[11] = tested on: S. pneumoniae Stpn_Erm S 4297; assay type: cell-based, Streptococcus pneumoniae; settings: Table 3, Strain ID I: S. pneumoniae Stpn_Erm S 4297
Procedure, shortened: as §1

[12] = tested on: S. pneumoniae Stpn_49619; assay type: cell-based, Streptococcus pneumoniae; settings: Table 3, Strain ID E: S. pneumoniae Stpn_49619
Procedure, shortened: as §1

[13] = tested on: H. influenzae Hain_49247; assay type: cell-based, Haemophilus influenzae; settings: Table 3, Strain ID L: H. influenzae Hain_49247; unit assumed
Procedure, shortened: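 Visible-growth inhibition defined the MIC, obtained by NCCLS broth microdilution at 35° C. over 18-24 hours with a final inoculum of 3×10^5–7×10^5 CFU/mL.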

SMILES | MIC [1] | MIC [2] [µg/mL] | MIC [3] [µg/mL] | MIC [4] [µg/mL] | MIC [5] | MIC [6] [µg/mL] | MIC [7] | MIC [8] | MIC [9] | MIC [10] [µg/mL] | MIC ([11]; unit assumed) [µg/mL] | MIC [12] | MIC [13] [µg/mL] | MIC ([1]; unit assumed) [µg/mL] | MIC ([7]; unit assumed) [µg/mL] | MIC ([5]; unit assumed) [µg/mL] | MIC ([8]; unit assumed) [µg/mL] | MIC ([9]; unit assumed) [µg/mL] | MIC ([12]; unit assumed) [µg/mL] | MIC [11]
CC[C@H]1OC(=O)[C@H](C)C(=O)[C@H](C)[C@@H](O[C@@H]2O[C@H](C)C[C@H](N(C)C)[C@H]2O)[C@@](C)(OC)C[C@@H](C)C(=O)[C@H](C)[C@@H]2[C@@H]1OC(=O)N2CCCCc1ccnc2ccccc12 [Compound 4711] | ≦0.05 | 0.1 (≈ 0.128 µM) | 0.1 (≈ 0.128 µM) | 50 (≈ 63.9 µM) | ≦0.5 | 0.1 (≈ 0.128 µM) | ≦0.5 | ≦0.5 | ≦0.5 | 6.25 (≈ 7.99 µM) | 0.2 (≈ 0.256 µM) | ≦0.5 | 1.56 (≈ 1.99 µM) |  |  |  |  |  |  | 
CC[C@H]1OC(=O)[C@H](C)C(=O)[C@H](C)[C@@H](O[C@@H]2O[C@H](C)C[C@H](N(C)C)[C@H]2O)[C@@](C)(OC)C[C@@H](C)C(=O)[C@H](C)[C@@H]2[C@@H]1OC(=O)N2CCCCc1ccc2ccccc2n1 [Compound 5960] | ≦0.05 | 0.2 (≈ 0.256 µM) | 0.2 (≈ 0.256 µM) | 25 (≈ 32 µM) | ≦0.05 | 0.2 (≈ 0.256 µM) | ≦0.05 | ≦0.05 | ≦0.05 | 25 (≈ 32 µM) | 0.1 (≈ 0.128 µM) | ≦0.05 | 3.13 (≈ 4 µM) |  |  |  |  |  |  | 
CC[C@H]1OC(=O)[C@H](C)[C@@H](O[C@H]2C[C@@](C)(OC)[C@@H](O)[C@H](C)O2)[C@H](C)[C@@H](O[C@@H]2O[C@H](C)C[C@H](N(C)C)[C@H]2O)[C@](C)(OC)C[C@@H](C)C(=O)[C@H](C)[C@@H](O)[C@]1(C)O [Clar., clarithromycin, reference compound] |  | 0.2 (≈ 0.267 µM) | 0.2 (≈ 0.267 µM) | 50 (≈ 66.8 µM) | ≦0.05 | 6.25 (≈ 8.36 µM) |  | ≦0.05 | ≦0.05 | > 50 | > 50 | ≦0.05 | 12.5 (≈ 16.7 µM) | 0.78 (≈ 1.04 µM) | 1.56 (≈ 2.09 µM) |  |  |  |  | 
CC[C@H]1OC(=O)[C@H](C)C(=O)[C@H](C)[C@@H](O[C@@H]2O[C@H](C)C[C@H](N(C)C)[C@H]2O)[C@@](C)(OC)C[C@@H](C)C(=O)[C@H](C)[C@H]2N(CCCCc3ccnc4ccccc34)C(=O)O[C@]12CC [Compound 7283] |  | 0.2 (≈ 0.247 µM) | 0.2 (≈ 0.247 µM) | 12.5 (≈ 15.4 µM) | ≦0.05 | 0.4 (≈ 0.494 µM) | ≦0.05 | ≦0.05 | ≦0.05 | 0.4 (≈ 0.494 µM) | 0.1 (≈ 0.123 µM) | ≦0.05 | 3.13 (≈ 3.86 µM) | 0.1 (≈ 0.123 µM) |  |  |  |  |  | 
CC[C@H]1OC(=O)[C@H](C)C(=O)[C@H](C)[C@@H](O[C@@H]2O[C@H](C)C[C@H](N(C)C)[C@H]2O)[C@@](C)(OC)C[C@@H](C)C2=N[C@@H](C)CN3C(=O)O[C@H]1[C@H]3[C@H]2C [Compound 6223] |  | 1.56 (≈ 2.45 µM) | 3.13 (≈ 4.91 µM) | 50 (≈ 78.4 µM) |  | 0.78 (≈ 1.22 µM) |  |  |  | > 50 | > 50 |  | > 50 | 0.78 (≈ 1.22 µM) | 0.4 (≈ 0.627 µM) | 0.2 (≈ 0.314 µM) | 0.2 (≈ 0.314 µM) | 0.2 (≈ 0.314 µM) | 0.2 (≈ 0.314 µM) | 
CC[C@H]1OC(=O)[C@H](C)C(=O)[C@H](C)[C@@H](O[C@@H]2O[C@H](C)C[C@H](N(C)C)[C@H]2O)[C@@](C)(OC)C[C@@H](C)C(=O)[C@H](C)[C@H]2N(CCCCn3cnc(-c4cccnc4)c3)C(=O)O[C@]12CC [Compound 7280] |  | 0.2 (≈ 0.242 µM) | 0.2 (≈ 0.242 µM) | 25 (≈ 30.3 µM) | ≦0.05 | 0.4 (≈ 0.484 µM) |  | ≦0.05 | ≦0.05 | 0.4 (≈ 0.484 µM) |  | ≦0.05 | 6.25 (≈ 7.57 µM) | 0.1 (≈ 0.121 µM) | 0.1 (≈ 0.121 µM) |  |  |  |  | ≦0.05
CC[C@H]1OC(=O)[C@H](C)C(=O)[C@H](C)[C@@H](O[C@@H]2O[C@H](C)C[C@H](N(C)C)[C@H]2O)[C@@](C)(OC)C[C@@H](C)C2=NCCN3C(=O)O[C@H]1[C@H]3[C@H]2C [Compound 6222] |  | 1.56 (≈ 2.5 µM) | 1.56 (≈ 2.5 µM) | 50 (≈ 80.2 µM) |  | 0.78 (≈ 1.25 µM) |  |  |  | > 50 | > 50 |  | 25 (≈ 40.1 µM) | 0.4 (≈ 0.641 µM) | 0.4 (≈ 0.641 µM) | 0.2 (≈ 0.321 µM) | 0.2 (≈ 0.321 µM) | 0.4 (≈ 0.641 µM) | 0.2 (≈ 0.321 µM) | 
CC[C@H]1OC(=O)[C@H](C)C(=O)[C@H](C)[C@@H](O[C@@H]2O[C@H](C)C[C@H](N(C)C)[C@H]2O)[C@@](C)(OC)C[C@@H](C)C(=O)[C@H](C)[C@@H]2[C@@H]1OC(=O)N2CCCCc1ccnc2ccccc12 [Compound 6220] | ≦0.05 | 0.1 (≈ 0.128 µM) | 0.1 (≈ 0.128 µM) | 6.25 (≈ 7.99 µM) | ≦0.05 | 0.4 (≈ 0.512 µM) | ≦0.5 | ≦0.05 | ≦0.05 | 3.13 (≈ 4 µM) | 0.1 (≈ 0.128 µM) | ≦0.05 | 1.56 (≈ 1.99 µM) |  |  |  |  |  |  | 
CC[C@H]1OC(=O)[C@H](C)C(=O)[C@H](C)[C@@H](O[C@@H]2O[C@H](C)C[C@H](N(C)C)[C@H]2O)[C@@](C)(OC)C[C@@H](C)C(=O)[C@H](C)[C@H]2N(CCCCn3cnc4ccccc43)C(=O)O[C@]12CC [Compound 7282] |  | 0.4 (≈ 0.501 µM) | 0.2 (≈ 0.25 µM) | 12.5 (≈ 15.6 µM) | ≦0.05 | 0.4 (≈ 0.501 µM) |  | ≦0.05 | ≦0.05 | 0.78 (≈ 0.976 µM) | 0.2 (≈ 0.25 µM) | ≦0.05 | 3.13 (≈ 3.92 µM) | 0.1 (≈ 0.125 µM) | 0.1 (≈ 0.125 µM) |  |  |  |  | 
CC[C@H]1OC(=O)[C@H](C)C(=O)[C@H](C)[C@@H](O[C@@H]2O[C@H](C)C[C@H](N(C)C)[C@H]2O)[C@@](C)(OC)C[C@@H](C)C(=O)[C@H](C)[C@@H]2[C@@H]1OC(=O)N2CCCCn1cnc(-c2ccccc2)c1 [Compound 6221] | ≦0.05 | 0.1 (≈ 0.125 µM) | 0.1 (≈ 0.125 µM) | 25 (≈ 31.4 µM) | ≦0.05 | 0.4 (≈ 0.502 µM) | ≦0.05 | ≦0.05 | ≦0.05 | 0.1 (≈ 0.125 µM) |  | ≦0.05 | 3.13 (≈ 3.93 µM) |  |  |  |  |  |  | ≦0.05
